Source: patent publication US7834013B2, “Aminophenylcyclopropyl carboxylic acids and derivatives as agonists to GPR40” (GlaxoSmithKline LLC, priority 2003, dated 2010)
Where a name gives a salt, the structure may show the parent alone.

Biological target: T1, GPR40 (Homo sapiens, UniProt O14842)
T1 construct: expressed in transfected cells
Assay: GPR40 SAR Primary Assay (Elk-1/Gal4-luc+ reporter, luciferase activity)
Type: cell-based
Conditions: stable GPR40 Elk-1/Gal4-luc+ CHO cell line, 5 hours incubation
Description: An existing stable GPR40 Elk-1/Gal4-luc^+ CHO cell line generated by electroporation and functional cloning was used. Cells were maintained in a humidified incubator at 37° C./5% CO2 in complete media containing DMEM/F12 (Gibco, #11039-021), 5% FBS (Gibco, #16140-071) and 1% Glutamine (Gibco, #25030-081). Cell maintenance passages were made at 1:40 dilution every 3-4 days. Forty eight hours prior to assay, 15e6 cells were added to 200 ml of complete media then seeded into a 1200 cm^2-cell factory and returned to a humidified incubator at 37° C./5% CO2. 20 hours prior to assay, the growth media was removed and replaced with 200 ml of serum-free DMEM/F12 to quiesce background activity. At the time of assay, cells were harvested using non-enzymatic cell dissociation solution (Sigma, #C-5914), washed and counted. The 20 hour starve media was collected and used as condition media for cell assay plating. Cells were plated at a concentration of 10,000 cells/well in a total well volume of […] in black 96-well clear bottom polystyrene plates (CoStar, #3904). Test compounds were prepared as serial dilutions in 100% DMSO, then 1 ul was delivered to each well resulting in a final concentration of 1% DMSO. The plates were then returned to a humidified incubator at 37° C./5% CO2 for 5 hours. Following the incubation, the medium was replaced with 50 ul of a 1:1 mixture of SteadyGlo™ (Promega, #E2550) and dPBS containing 1 mM CaCl2 and 1 mM MgCl2. Plates were then sealed and subjected to dark adaptation at room temperature for 10 minutes. Luciferase activity was measured on a Packard TopCount™ microplate scintillation counter using 2 seconds per well count time.
Data analysis was performed using standard methods.
The Normalization Equation used was 100*(Unknown compound response−Background response)/(Agonist Max response−Background response).
The Curve Fit Function used was y=((Vmax*x^n)/(K^n+x^n))+Y2.
A percent max response and pEC50 were recorded for each compound. Although specific pEC50 values are given, these values should be considered exemplary. Those skilled in the art will appreciate the variability in performing and recording the biological activity assays that are herein described. The compounds of the present invention provide a pEC50 of at least 5.0.

T1 sequence (O14842 whole entry): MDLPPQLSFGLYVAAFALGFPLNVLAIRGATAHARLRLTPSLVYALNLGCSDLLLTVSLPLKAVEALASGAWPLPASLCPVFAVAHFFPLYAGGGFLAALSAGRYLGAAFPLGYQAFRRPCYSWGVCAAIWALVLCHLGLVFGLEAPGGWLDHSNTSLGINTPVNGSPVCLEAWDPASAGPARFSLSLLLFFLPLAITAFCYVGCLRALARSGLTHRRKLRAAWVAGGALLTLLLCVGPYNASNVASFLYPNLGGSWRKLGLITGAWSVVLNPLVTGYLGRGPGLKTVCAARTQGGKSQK

| EC50 | Compound |
| --- | --- |
| 20 nM | Cc1nc(-c2ccc(C(F)(F)F)cc2)sc1CNc1ccc([C@@H]2C[C@H]2C(N)=O)cc1 (racemic) [Example 43, Racemic-(trans)-2-{4-[({4-methyl-2-[4-(trifluoromethyl)phenyl]-1,3-thiazol-5-yl}methyl)amino]phenyl}cyclopropanecarboxamide] |
| 10 nM | Cc1nc(-c2ccc(C(F)(F)F)cc2)sc1CNc1ccc([C@@H]2C[C@H]2C(=O)NC(C)C)cc1 (racemic) [Example 45, Racemic-(trans)-N-isopropyl-2-{4-[({4-methyl-2-[4-(trifluoromethyl)phenyl]-1,3-thiazol-5-yl}methyl)amino]phenyl}cyclopropanecarboxamide] |
| 63.1 nM | Cc1nc(-c2ccc(C(F)(F)F)cc2)sc1CNc1ccc([C@@H]2C[C@H]2C(=O)N(C)C)cc1 (racemic) [Example 46, Racemic-(trans)-N,N-dimethyl-2-{4-[({4-methyl-2-[4-(trifluoromethyl)phenyl]-1,3-thiazol-5-yl}methyl)amino]phenyl}cyclopropanecarboxamide] |
| 10 nM | O=C(NCc1ccncc1)[C@@H]1C[C@H]1c1ccc(NCc2cccc(Oc3ccccc3)c2)cc1 (racemic) [Example 47, Racemic-(trans)-2-[4-({[3-(phenyloxy)phenyl]methyl}amino)phenyl]-N-(4-pyridinylmethyl)cyclopropanecarboxamide] |
| 31.6 nM | COc1ccc(CNC(=O)[C@@H]2C[C@H]2c2ccc(NCc3cccc(Oc4ccccc4)c3)cc2)cc1 (racemic) [Example 48, Racemic-(trans)-N-(4-methoxybenzyl)-2-{4-[(3-phenoxybenzyl)amino]phenyl}cyclopropanecarboxamide] |
| 31.6 nM | O=C(NCc1ccc(C(F)(F)F)cc1)[C@@H]1C[C@H]1c1ccc(NCc2cccc(Oc3ccccc3)c2)cc1 (racemic) [Example 49, Racemic-(trans)-2-{4-[(3-phenoxybenzyl)amino]phenyl}-N-[4-(trifluoromethyl)benzyl]cyclopropanecarboxamide] |
| 251 nM | O=C(NCCN1CCOCC1)[C@@H]1C[C@H]1c1ccc(NCc2cccc(Oc3ccccc3)c2)cc1 (racemic) [Example 50, Racemic-(trans)-N-(2-morpholin-4-ylethyl)-2-{4-[(3-phenoxybenzyl)amino]phenyl}cyclopropanecarboxamide] |
| 50.1 nM | O=C(NCC(F)(F)F)[C@@H]1C[C@H]1c1ccc(NCc2cccc(Oc3ccccc3)c2)cc1 (racemic) [Example 51, Racemic-(trans)-2-{4-[(3-phenoxybenzyl)amino]phenyl}-N-(2,2,2-trifluoroethyl)cyclopropanecarboxamide] |
| 15.8 nM | CC(C)NC(=O)[C@@H]1C[C@H]1c1ccc(NCc2sc(-c3ccc(C(F)(F)F)cc3)nc2C(C)C)cc1 (racemic) [Example 52, Racemic-(trans)-N-isopropyl-2-{4-[({4-isopropyl-2-[4-(trifluoromethyl)phenyl]-1,3-thiazol-5-yl}methyl)amino]phenyl}cyclopropanecarboxamide] |
| 10 nM | Cc1nc(-c2ccc(C(F)(F)F)cc2)sc1CNc1ccc([C@@H]2C[C@H]2C(N)=O)cc1 (single isomer, unassigned) [Example 39, Enantiomerically Enriched (trans)-2-{4-[({4-methyl-2-[4-(trifluoromethyl)phenyl]-1,3-thiazol-5-yl}methyl)amino]phenyl}cyclopropanecarboxamide] |
| 6.31 nM | Cc1nc(-c2ccc(C(F)(F)F)cc2)sc1CNc1ccc([C@@H]2C[C@H]2C(=O)NO)cc1 (single isomer, unassigned) [Example 41, Enantiomerically Enriched (trans)-N-hydroxy-2-{4-[({4-methyl-2-[4-(trifluoromethyl)phenyl]-1,3-thiazol-5-yl}methyl)amino]phenyl}cyclopropanecarboxamide] |
| 7.94 nM | Cc1nc(-c2ccc(C(F)(F)F)cc2)sc1CNc1ccc([C@@H]2C[C@H]2C(=O)NC2CCC2)cc1 (single isomer, unassigned) [Example 42, Enantiomerically Enriched (trans)-N-cyclobutyl-2-{4-[({4-methyl-2-[4-(trifluoromethyl)phenyl]-1,3-thiazol-5-yl}methyl)amino]phenyl}cyclopropanecarboxamide] |
| 10 nM | CC(C)NC(=O)C1CC1c1ccc(NCc2cccc(Oc3ccccc3)c2)cc1 (single isomer, unassigned; (+)) [Example 44, (+)-(trans)-N-(1-methylethyl)-2-[4-({[3-(phenyloxy)phenyl]methyl}amino)phenyl]cyclopropanecarboxamide] |

The next lines start with the molecule.

| Compound | EC50 |
| --- | --- |
| Nc1ccc(Oc2cccc(CNc3ccc([C@H]4C[C@@H]4C(=O)O)cc3)c2)cc1 (racemic) [Example 24, Racemic-(trans)-2-{4-[({3-[(4-aminophenyl)oxy]phenyl}methyl)amino]phenyl}cyclopropanecarboxylic Acid Trifluoroacetate] | 200 nM |
| NC(=O)C1CC1c1ccc(NCc2ccc(-c3ccccc3)cc2)cc1 (racemic) [Example 35, Racemic-(trans)-2-{4-[(4-biphenylmethyl)amino]phenyl}cyclopropanecarboxamide] | 20 nM |
| NC(=O)[C@@H]1C[C@H]1c1ccc(NCc2ccc(-c3ccccn3)cc2)cc1 (racemic) [Example 36, Racemic-(trans)-2-[4-({[4-(2-pyridinyl)phenyl]methyl}amino)phenyl]cyclopropanecarboxamide] | 251 nM |
| Cc1nc(-c2ccc(C(F)(F)F)cc2)sc1CNc1ccc([C@@H]2C[C@H]2C(=O)NCc2ccncc2)cc1 (racemic) [Example 37, Racemic-(trans)-2-{4-[({4-methyl-2-[4-(trifluoromethyl)phenyl]-1,3-thiazol-5-yl}methyl)amino]phenyl}-N-(4-pyridinylmethyl)cyclopropanecarboxamide] | 10 nM |
| O=C(O)[C@@H]1C[C@H]1c1ccc(NCc2cccc(Oc3ccccc3)c2)cc1 (single isomer, unassigned) [Example 25] | 631 nM |
| Cc1nc(-c2ccc(C(F)(F)F)cc2)sc1CNc1ccc([C@@H]2C[C@H]2C(=O)NCc2ccncc2)cc1 (single isomer, unassigned) [Example 38, Enantiomerically Enriched (trans)-2-{4-[({4-methyl-2-[4-(trifluoromethyl)phenyl]-1,3-thiazol-5-yl}methyl)amino]phenyl}-N-(4-pyridinylmethyl)cyclopropanecarboxamide TFA Salt] | 5.01 nM |
| O=C(O)C1CC1c1ccc(NCc2cccc(Oc3ccccc3)c2)cc1 (single isomer, unassigned; (+)) [Example 26, (+)-(Trans)-2-{4-[(3-phenoxybenzyl)amino]phenyl}cyclopropanecarboxylic Acid] | 3.98 nM |
| Cc1nc(-c2ccc(C(F)(F)F)cc2)sc1CNc1ccc(C2CC2C(=O)O)cc1 (single isomer, unassigned; (+)) [Example 27, (+)-(Trans)-2-{4-[({4-methyl-2-[4-(trifluoromethyl)phenyl]-1,3-thiazol-5-yl}methyl)amino]phenyl}cyclopropanecarboxylic Acid] | 3.98 nM |
| O=C(O)C1CC1c1ccc(NCc2cccc(Oc3ccc(Cl)c(Cl)c3)c2)cc1 (single isomer, unassigned; (+)) [Example 28a, (+)-(Trans)-2-{4-[({3-[(3,4-dichlorophenyl)oxy]phenyl}methyl)amino]phenyl}cyclopropanecarboxylic Acid Trifluoroacetate] | 3.16 nM |
| O=C(O)C1CC1c1ccc(NCc2cccc(Oc3ccccc3)c2)cc1Cl (single isomer, unassigned; (+)) [Example 30a, (+)-(Trans)-2-[2-chloro-4-({[3-(phenyloxy)phenyl]methyl}amino)phenyl]cyclopropanecarboxylic Acid] | 398 nM |
| O=C(O)C1CC1c1cc(F)c(NCc2cccc(Oc3ccccc3)c2)cc1F (single isomer, unassigned; (+)) [Example 31a, (+)-(trans)-2-[2,5-difluoro-4-({[3-(phenyloxy)phenyl]methyl}amino)phenyl]cyclopropanecarboxylic Acid] | 501 nM |
| Cc1nc(-c2ccc(C(F)(F)F)cc2)sc1CNc1ccc(C2CC2C(=O)O)cc1 (single isomer, unassigned; (-)) [Example 29, (−)-(cis)-2-{4-[({4-methyl-2-[4-(trifluoromethyl)phenyl]-1,3-thiazol-5-yl}methyl)amino]phenyl}cyclopropanecarboxylic Acid] | 316 nM |
| O=C(O)[C@H]1C[C@@H]1c1ccc(NCc2cccc(Oc3cc(Cl)cc(Cl)c3)c2)cc1 [Example 32, (+)-(trans)-2-{4-[({3-[(3,5-dichlorophenyl)oxy]phenyl}methyl)amino]phenyl}cyclopropanecarboxylic Acid trifluoroacetate] | 5.01 nM |
